Source: patent US9682957B2 (Theravance Respiratory Company, LLC, priority 2009, dated 2017)
Structures can show the parent of a compound that is named as a salt.

Tested on: MCh-induced bronchoconstriction
Assay: Einthoven assay: bronchoprotection against methacholine (MCh)-induced bronchoconstriction
Assay type: in vivo
Settings: rat, 100 μg by inhalation, 24 h after administration
Experimental: This assay measures the ability of a test compound to provide bronchoprotection against methacholine (MCh)-induced bronchoconstriction in a rat. Male Sprague-Dawley rats (Harlan, Indianapolis, Ind.), weighing between 200 g and 350 g, were used for all studies. Test compound or vehicle (sterile deionized water) were dosed by inhalation (IH) over a 10 min period in a pie shaped inhalation chamber (R+S Molds, San Carlos, Calif.) using 5 mL of dosing solution. […] Rats were dosed with 100 μg of test compound unless otherwise indicated. At predetermined time points, rats were anesthetized with an intraperitoneal (IP) injection of 120 mg/kg inactin (thiobutabarbital). A supplemental dose (40 mg/kg, IP) was administered if the animal responded to physical stimuli (e.g. toe pinch). The surgical site was shaved and a 1-2 cm midline incision of the ventral aspect of the neck was made. The jugular vein was isolated and cannulated with a saline-filled polyethylene catheter (PE-50) to allow IV infusion of MCh. Trachea was dissected free and cannulated with a 14G needle (#NE-014, Small Parts, Miami Lakes, Fla.). After placement of the tracheal cannula, each rat was ventilated using a respirator (Model 683, Harvard Apparatus, Inc., MA) set at a stroke volume of 1 mL/100 g body weight (but not exceeding 2.5 mL volume) and a rate of 90 strokes per minute. A T-connector was placed along the respirator expiratory tubing to allow for measurement of changes in ventilation pressure (VP) using a Biopac transducer that was connected to a Biopac […]) pre-amplifier. Body temperature was maintained at 37° C. using a heating pad. Changes in VP were recorded using the Acknowledge Data Collection Software (Santa Barbara, Calif.). Baseline values were collected for at least 2.5 min. Rats were then challenged with non-cumulative intravenous (IV) infusions of 40 and 80 μg/kg MCh. MCh was infused intravenously for 2.5 minutes from a syringe pump (sp210iw, World Precision Instruments, Inc., Sarasota, Fla.) at a rate of 2 mL/kg/min, with a 2 minute interval between the two doses of MCh. Changes in ventilation pressure (cm H2O) in treated animals are expressed as % inhibition of MCh response relative to control animals. Other bronchoconstrictors, such as histamine and acetylcholine, can be used in place of MCh in this assay. Additionally, guinea pigs can be used instead of rats. […] Inhibition greater than or equal to 30 percent at 24 h is indicative of a long duration of action.

Row | SMILES | Broncho. at 24 h | Broncho. at 24 h (ditrifluoroacetic acid salt)
1 | CN(CCCCC(=O)Nc1ccc(CNC[C@H](O)c2ccc(O)c3[nH]c(=O)ccc23)cc1)C(=O)CCN1CCC(OC(=O)Nc2ccccc2-c2ccccc2)CC1 [Compound I-14, Biphenyl-2-ylcarbamic Acid 1-(2-{[4-(4-{[(R)-2-hydroxy-2-(8-hydroxy-2-oxo-1,2-dihydroquinolin-5-yl)ethylamino]methyl}phenylcarbamoyl)-butyl]methylcarbamoyl}ethyl)piperidin-4-yl Ester Ditrifluoroacetic Acid Salt] | Yes (Bronchoprotective effect present at 24 h, e.g., ≧30 % inhibition of the MCh response at 24 h in the rat Einthoven assay (100 μg)) | 
2 | C[C@@H](Cc1cccc(CC(=O)NCCCN(C)C(=O)CCN2CCC(OC(=O)Nc3ccccc3-c3ccccc3)CC2)c1)NC[C@H](O)c1ccc(O)c2[nH]c(=O)ccc12 [Compound I-13, Biphenyl-2-ylcarbamic Acid 1-[2-({3-[2-(3-{(S)-2-[(R)-2-Hydroxy-2-(8-hydroxy-2-oxo-1,2-dihydroquinolin-5-yl)ethylamino]propyl}phenyl)acetylamino]-propyl}methylcarbamoyl)ethyl]piperidin-4-yl Ester Ditrifluoroacetic Acid Salt] | Yes (Bronchoprotective effect present at 24 h, e.g., ≧30 % inhibition of the MCh response at 24 h in the rat Einthoven assay (100 μg)) | 
3 | CC(Cc1ccc(CNC(=O)Cc2ccc(N(C)C(=O)CCN3CCC(OC(=O)Nc4ccccc4-c4ccccc4)CC3)cc2)cc1)NC[C@H](O)c1ccc(O)c2[nH]c(=O)ccc12 (stereo partly drawn) [Compound I-66, Biphenyl-2-ylcarbamic acid 1-[2-({4-[(4-{2-[(R)-2-hydroxy-2-(8-hydroxy-2-oxo-1,2-dihydroquinolin-5-yl)-ethylamino]propyl}benzylcarbamoyl)methyl]phenyl}-methylcarbamoyl)ethyl]piperidin-4-yl ester ditrifluoroacetic acid salt] |  | No
4 | Cc1ccc(C(=O)Nc2ccc(CCNC[C@H](O)c3ccc(O)c4[nH]c(=O)ccc34)cc2)cc1N(C)C(=O)CCN1CCC(OC(=O)Nc2ccccc2-c2ccccc2)CC1 [Compound I-35] | Yes (Bronchoprotective effect present at 24 h, e.g., ≧30 % inhibition of the MCh response at 24 h in the rat Einthoven assay (100 μg)) | 
5 | CC(Cc1cccc(CCNC(=O)Cc2ccc(N(C)C(=O)CCN3CCC(OC(=O)Nc4ccccc4-c4ccccc4)CC3)cc2)c1)NC[C@H](O)c1ccc(O)c2[nH]c(=O)ccc12 (some centres unmarked) [Compound I-85, ditrifluoroacetic acid salt] | Yes (Bronchoprotective effect present at 24 h, e.g., ≧30 % inhibition of the MCh response at 24 h in the rat Einthoven assay (100 μg)) | 
6 | CN(C(=O)CCN1CCC(OC(=O)Nc2ccccc2-c2ccccc2)CC1)c1cccc(C(=O)Nc2ccc(CCNC[C@H](O)c3ccc(O)c4[nH]c(=O)ccc34)cc2)c1 [Compound I-34, Ditrifluoroacetate] | Yes (Bronchoprotective effect present at 24 h, e.g., ≧30 % inhibition of the MCh response at 24 h in the rat Einthoven assay (100 μg)) | 
7 | Cc1cc(NC(=O)CCCCN(C)C(=O)CCN2CCC(OC(=O)Nc3ccccc3-c3ccccc3)CC2)c(C)cc1CNC[C@H](O)c1ccc(O)c2[nH]c(=O)ccc12 [Compound I-18, Biphenyl-2-ylcarbamic Acid 1-(2-{[4-(4-{[(R)-2-Hydroxy-2-(8-hydroxy-2-oxo-1,2-dihydroquinolin-5-yl)ethylamino]methyl}-2,5-dimethylphenylcarbamoyl)butyl]methylcarbamoyl}ethyl)piperidin-4-yl Ester Ditrifluoroacetic Acid Salt] | Yes (Bronchoprotective effect present at 24 h, e.g., ≧30 % inhibition of the MCh response at 24 h in the rat Einthoven assay (100 μg)) | 
8 | CN(CCCC(=O)Nc1cccc(CCNC[C@H](O)c2ccc(O)c3[nH]c(=O)ccc23)c1)C(=O)CCN1CCC(OC(=O)Nc2ccccc2-c2ccccc2)CC1 [Compound I-7, Biphenyl-2-ylcarbamic Acid 1-(2-{[3-(3-{2-[(R)-2-Hydroxy-2-(8-hydroxy-2-oxo-1,2-dihydroquinolin-5-yl)ethylamino]ethyl}phenylcarbamoyl)-propyl]methylcarbamoyl}ethyl)piperidin-4-yl Ester Ditrifluoroacetic Acid Salt] | Yes (Bronchoprotective effect present at 24 h, e.g., ≧30 % inhibition of the MCh response at 24 h in the rat Einthoven assay (100 μg)) | 
